# Data published in US20110118337A1, “Method of Using Compositions Comprising MIR-192 and/or MIR-215 for the Treatment of Cancer” (Merck Sharp & Dohme Corp., priority 2008, published 2011).
# Where “and” joins values, the source holds several entries; their conditions need not be identical. Identical values can stand only once.
# Assays:
# HCT116DICER^ex5 cells [1] = experiment: Transfection of siRNA pools (G1 or G2 gene set) at suboptimal levels, cell cycle FACS analysis (nocodazole or aphidicolin); type: cell-based, human; settings: 10 nM; for % G1 / % G2: 66 hours post transfection
# Experimental: […] At 48 hours post-transfection into HCT116DICER^ex5 cells, the cells were treated with nocodazole for an additional 18 hours prior to FACS analysis.
# […] At 48 hours post-transfection into HCT116DICER^ex5 cells, the cells were treated with aphidicolin for an additional 18 hours prior to FACS analysis.
# HCT116DICER^ex5 cells [2] = experiment: BrdU pulse-labeling, flow cytometry (S-phase); type: cell-based, human; settings: BrdU pulse-labeled; 10 nM duplex
# Experimental: (§1) At 48 hours post transfection, cells were left untreated, treated with nocodazole (100 ng/mL, Sigma-Aldrich), or treated with aphidicolin (2 μg/mL, Sigma-Aldrich) for an additional 18 hours before harvesting. The cells were then trypsinized, collected, fixed and stained with a propidium iodide solution. BrdU-labeling was performed according to the manufacturer's instructions (BD-Pharmigen). For phospho-histone H3 analysis, cells were fixed and permeabilized with IPF buffer (100 mM PIPES pH 6.8, 10 mM EDTA, 1 mM MgCl2, 0.2% Triton X-100, 4% formaldehyde) and stained with propidium iodide and anti-phospho-histone H3 antibody conjugated to Alexa-488 (Cell Signaling Technology). The cells were analyzed using a FACSCalibur flow cytometer (Beacton Dickinson) and FlowJo software (Tree Star, Inc.).
# The transfected cells were also pulse-labeled with the thymidine analog 5-bromo-deoxyuridine (BrdU) to assay for defects in DNA synthesis. Using flow cytometry and it was determined that the percentage of cells in S-phase in the mock transfected population was 37.3%, whereas the percentage of cells in S-phase in the miR-192 transfected population was 11.9%.
# HCT116DICER^ex5 cells [3] = experiment: Phospho-histone H3 immunostaining, flow cytometry (M-phase), nocodazole-treated; type: cell-based, human; settings: phospho-histone-H3 positive, 10 nM duplex
# Experimental: as §1
# Nocodazole-treated mock transfected and miR-192 transfected cells were also permeabilized, immunostained for phospho-histone-H3 (a mitotic marker) and sorted for DNA content and the respective accumulation of positively stained cells in the mitotic compartment was quantified. It was determined that the percentage of cells in M-phase in the mock transfected population was 40.9%, whereas the percentage of cells in M-phase in the miR-192 transfected population was 4.9%.
# HCT116DICER^ex5 cells [4] = experiment: Cell cycle distribution by propidium iodide FACS after miR-192 duplex transfection (untreated, nocodazole or aphidicolin); type: cell-based, human; settings: for % Cells with 2N (G1/S) / % Cells with 4N (G2/M): 10 nM duplex, 66 hours after transfection
# Experimental: as §1
# [5] = system: 3′ UTRs of the 18 candidate genes in U-2-OS cells; experiment: 3′ UTR luciferase reporter analysis; type: cell-based; settings: 10 nM, 24 hours post-transfection
# Description: In order to test whether miR-192 is regulating these genes through seed sequence-specific recognition of binding sites within their 3' UTRs, a series of reporter constructs were generated containing the entire natural 3' UTRs of the 18 candidate genes (BCL2, CDC7, CUL5, DLG5, DTL, ERCC3, HOXA10, HRH1, LMNB2, MAD2L1, MCM10, MIS12, MPHOSPH1, PIM1, PRPF38A, […]1, SEPT10 and SMARCB1) inserted downstream of a luciferase open reading frame (SwitchGear Genomics) to create 3' UTR luciferase reporter plasmids. U-2-OS cells were transfected first with 10 nM miR-192 or 10 nM miR-192 mutant, and subsequently transfected 4 to 6 hours later with these 3' UTR reporter plasmids. A renilla luciferase expression plasmid from dual luciferase system (Promega) was used as an internal control. Luciferase activity was measured at 24 hours post-transfection, and quantified relative to renilla luciferase activity.
# HCT116DICER^ex5 cells [6] = experiment: Cell cycle FACS analysis of siRNAs against top G1 and G2 arrest genes (nocodazole or aphidicolin); type: cell-based, human; settings: 10 mM miR-192
# Experimental: Of the 62 genes shown above in TABLE 6, the 10 genes whose targeting by siRNA caused the largest percentage of cells to arrest in G1, listed below in TABLE 7, were transfected into HCT116DICER^ex5 cells in another experiment as follows.
# HCT116DICER^ex5 cells were transfected with […] miR-192 or 100 nM siRNA against luciferase, or 100 nM siRNA (one siRNA duplex of the pool of three) against the putative miR-192 target of interest, as indicated in TABLES 7 and 8. At 48 hours post transfection, cells were treated with nocodazole or aphicicolin for an additional 18 hours prior to FACS analysis. The results for the nocodazole treated cells (% of cells in G1) are provided in TABLE 7, and graphically illustrated in FIG. 3A. The results for the aphidicolin treated cells (% of cells in G2) are provided in TABLE 8 and graphically illustrated in FIG. 3B.
# [7] = system: miR-192 target transcripts; experiment: Down-regulation of miR-192 target transcripts; type: cell-based
# [8] = system: 18 candidate downstream targets of miR-192/miR-215 in U-2-OS cells; experiment: Transcript abundance of target genes by quantitative PCR (Taqman); type: cell-based; settings: 10 nM, 10 hours following transfection, relative to luciferase siRNA or miR-192 seed region mutant
# Experimental: To further confirm that the candidate genes shown in TABLE 7 and TABLE 8 are direct downstream targets of miR-192/miR-215, miR-192 siRNA (10 nM) synthetic duplexes, miR-192 mutant (10 nM) or 10 nM siRNA against luciferase were transfected into the cell line U-2-OS, an osteosarcoma cell line that has wild-type DICER function and a relatively low endogenous level of miR-192/miR-215.
# RNA was isolated at 10 hours post-transfection and transcript abundance of the target genes shown in TABLE 7 and TABLE 8 was measured by quantitative PCR. Transcript abundance was measured by Taqman gene expression assay (Applied Biosystems) using hGUS as an internal control. Levels of transcripts were quantified using an ABI Prism 7900HT sequence detection system.
# [9] = compared with mock or mutant miR-192-transfected cells
substance,measurement,setting,value
"miR-192: Synthetic duplex mimetic of miR-192, guide CUGACCUAUGAAUUGACAGCC (SEQ ID NO:1), passenger SEQ ID NO:7 (sense CUGUCAAUUCAUCGGUCUGAU; listed as RNA, chemistry not given here; listed as Homo sapiens)",% G1,HCT116DICER^ex5 cells [1]; after aphidicolin treatment,50.4%
same,% G2,HCT116DICER^ex5 cells [1]; after aphidicolin treatment,44.7%
same,G2 arrest phenotype,HCT116DICER^ex5 cells [1]; aphidicolin,induced a G2-arrest phenotype
same,G1 arrest phenotype,HCT116DICER^ex5 cells [1]; nocodazole,induced a G1-arrest phenotype
same,% G1,HCT116DICER^ex5 cells [1]; nocodazole,43.9%
same,% G2,HCT116DICER^ex5 cells [1]; nocodazole,53.6%
same,percentage of cells in S-phase,HCT116DICER^ex5 cells [2],11.9%
same,percentage of cells in M-phase,HCT116DICER^ex5 cells [3],4.9%
same,% Cells with 2N (G1/S),HCT116DICER^ex5 cells [4]; aphidicolin 2 μg/mL 18 hours,46.3%
same,% Cells with 4N (G2/M),HCT116DICER^ex5 cells [4]; aphidicolin 2 μg/mL 18 hours,47.4%
same,G2/M phase population,HCT116DICER^ex5 cells [4]; [9],increase
same,S phase population,HCT116DICER^ex5 cells [4]; [9],significant decrease
same,% Cells with 2N (G1/S),HCT116DICER^ex5 cells [4]; nocodazole 100 ng/mL 18 hours,36% and 36.3%
same,% Cells with 4N (G2/M),HCT116DICER^ex5 cells [4]; nocodazole 100 ng/mL 18 hours,56.5%
same,accumulation in the G2/M phase,HCT116DICER^ex5 cells [4]; treated with aphidicolin,a significant fraction
same,% Cells with 2N (G1/S),HCT116DICER^ex5 cells [4]; untreated,48.6%
same,% Cells with 4N (G2/M),HCT116DICER^ex5 cells [4]; untreated,44.6%
same,regulation of 3′ UTR luciferase reporters of the 18 genes,[5],regulated
same,% Cells in G2,HCT116DICER^ex5 cells [6]; aphidicolin 18 hours from 48 hours post transfection,42.3%
same,% Cells in G1,HCT116DICER^ex5 cells [6]; nocodazole 18 hours from 48 hours post transfection,37.9%
same,down-regulation of target transcripts,[7],30-40%
same,candidate gene transcript levels,[8],decrease
